Consider 2 molecules from patent US4175081A, “5-Substituted thiadiazole ureas” (priority 1977, dated 1979).

Assay [1] relates to Crabgrass (CG). As to the kind of experiment: Pre-emergence herbicide test. It counts as in vivo, Digitaria sanquinalis. The following applies: Digitaria sanguinalis, pre-emergence, 336 h; 8 lb/acre; two weeks after treatment. The gist of the method:
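Crabgrass (Digitaria sanquinalis) was surface seeded in 3' plastic pots of potting soil, covered with screened soil, and watered by sub-irrigation in greenhouse trays. Pots were seeded one day before spraying in a hood with a moving belt and fixed nozzle. Plants stayed in the greenhouse on sub-irrigation, and pre-emergence control was rated visually two weeks after treatment.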

Assay [2] deals with Yellow foxtail grass (YF). As to the kind of experiment: Pre-emergence herbicide test. It counts as in vivo, Setaria glauca. Particulars: Setaria, 336 h, 8 lb/acre, two weeks after treatment. How it is done: (§1) Yellow foxtail grass (YF)--Setaria glauca
(§2) All crop and weed species were planted individually in 3' plastic pots containing potting soil. Four seeds each of corn, cotton, and snapbeans were seeded to a depth equal to the diameter of the seed. All other species were surface seeded and sprinkled with screened soil in an amount sufficient to cover the seed. Immediately after planting, all pots were watered by sub-irrigation in greenhouse trays. Pots for the pre-emergence phase were seeded one day before treatment.
(§3) Compounds were tested at rates of application equivalent to 8 lbs. of actual compound per acre in a spray volume of 38 gallons per acre. Spray hood constants required to deliver the above volume are as follows:
(§4) Formulations for spray applications were prepared in 50 ml volumes with the following three components:
(§5) Formulations for the 4 lbs/acre rate were prepared by adjusting the amount of active ingredient accordingly.
(§6) Spray applications were made in a hood containing a removable belt and fixed spray nozzle. For passage through the spray hood, one pot of each specie (pre-emergence phase) was placed on the rear half of the flat. Treatments were removed to the greenhouse after spraying. Watering during the observation period was done only by sub-irrigation.
(§7) Two weeks after treatment, pre- and post-emergence injury or control was visually rated, and the results were as shown in the following tables. Pre-emergence data are provided in TABLE III and post-emergence data are provided in TABLE IV, for compounds having the formula illustrated in TABLE I. Correspondingly, pre-emergence and post-emergence data, respectively, are set forth in TABLES V AND VI, for compounds having the formula illustrated in TABLE II.

Assay [3] concerns Johnson grass (JG). As to the kind of experiment: Pre-emergence herbicide test. It counts as in vivo, Sorgum helepense. The following applies: Sorghum halepense, 336 h, 8 lb/acre, two weeks after treatment. The essentials: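 Pots seeded one day before spraying; compound applied pre-emergence at 8 lbs/acre (or 4 lbs/acre) in 38 gallons/acre spray volume. Sub-irrigated in greenhouse; injury/control rated visually two weeks after treatment.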

In assay [4] the test system is Barnyard grass (BG). In words: Pre-emergence herbicide test. The assay is classed as in vivo. Particulars: Echinochloa crus-galli, 336 h, 8 lb/acre, two weeks after treatment. The essentials: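 Barnyard grass surface-seeded in potting soil and sprayed pre-emergence one day after seeding, at 8 or 4 lb compound/acre in 38 gal/acre spray volume. Pots kept in greenhouse with sub-irrigation only; injury or control rated visually two weeks after treatment.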

Assay [5] deals with Turnip (TP). In words: Pre-emergence herbicide test. It counts as in vivo, Brassica sp. Particulars: Brassica rapa, pre-emergence, 336 h; 8 lb/acre; two weeks after treatment. The gist of the method:
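Turnip (Brassica sp.) seeds were surface sown in 3' plastic pots of potting soil, covered with a thin layer of screened soil, and sub-irrigated in greenhouse trays. Pots were seeded one day ahead of treatment, sprayed pre-emergence under a hood with a fixed nozzle and moving belt, then kept in the greenhouse.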

Assay [6] deals with Cotton (CT). In words: Pre-emergence herbicide test. It counts as in vivo, Gossypium hirsutum var. DPL smooth leaf. The following applies: Gossypium hirsutum, 336 h, 8 lb/acre, two weeks after treatment. The essentials: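 Crop and weed species seeded one day before treatment, then sprayed pre-emergence at 8 lbs actual compound per acre (also 4 lbs/acre formulations) in 38 gallons per acre. Pots kept in greenhouse with sub-irrigation only; injury or control visually rated two weeks after treatment.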

The subject of assay [7] is Corn (CN). In words: Pre-emergence herbicide test. The assay is classed as in vivo. The following applies: Zea mays, 336 h, 8 lb/acre, two weeks after treatment. The essentials:
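Four corn seeds per pot, sown at seed-diameter depth one day before spraying, got soil surface treatment at 8 lbs/acre (4 lbs/acre formulations also prepared) in 38 gallons/acre. Pots were greenhouse-held with sub-irrigation only. Injury or control was scored visually two weeks after treatment.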

Assay [8] concerns Bean (BN). As to the kind of experiment: Pre-emergence herbicide test. It counts as in vivo, Phaseolus vulgaris var. Black Valentine. Particulars: Phaseolus vulgaris, 336 h, 8 lb/acre, two weeks after treatment. The gist of the method: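 Black Valentine bean was seeded in potting soil one day before spraying. Compound was applied pre-emergence at 8 lbs/acre (also 4 lbs/acre) in 38 gallons per acre. Plants were sub-irrigated and injury or control was rated visually after two weeks.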

Assay [9] deals with Crabgrass (CG). In words: Post-emergence herbicide test. It counts as in vivo, Digitaria sanquinalis. The following applies: Digitaria sanguinalis, post-emergence, 336 h; 8 lb/acre; two weeks after treatment. The essentials: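 Crabgrass (Digitaria sanquinalis) was surface seeded individually in 3' plastic pots of potting soil, covered with screened soil, and watered by sub-irrigation in greenhouse trays. Planting was staggered so seedlings reached the target stage together. Post-emergence sprays were applied in a hood with a removable belt and fixed nozzle, and control was visually rated two weeks after treatment.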

Assay [10] relates to Yellow foxtail grass (YF). In words: Post-emergence herbicide test. It counts as in vivo, Setaria glauca. The following applies: Setaria, 336 h, 8 lb/acre, two weeks after treatment. On the procedure:
as §1, §2
Planting dates for the post-emergence phase were varied so that all seedlings would reach the desired stage of development simultaneously. The proper stage of seedling development for treatment in the post-emergence phase is as follows:
as §3, §4, §5, §6, §7

Assay [11] deals with Johnson grass (JG). In words: Post-emergence herbicide test. The assay is classed as in vivo, Sorgum helepense. Particulars: Sorghum halepense, 336 h, 8 lb/acre, two weeks after treatment. The essentials:
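Greenhouse pot-grown seedlings sprayed post-emergence at 8 lbs compound per acre (some at 4 lbs/acre) in 38 gallons per acre spray volume. Sub-irrigated thereafter. Injury/control rated visually two weeks after treatment.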

Assay [12] concerns Barnyard grass (BG). In words: Post-emergence herbicide test. The assay is classed as in vivo. The following applies: Echinochloa crus-galli, 336 h, 8 lb/acre, two weeks after treatment. The gist of the method:
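Greenhouse pot-grown barnyard grass seedlings sprayed post-emergence at 8 lbs active compound per acre (some at 4 lbs/acre) in 38 gallons per acre, then sub-irrigated. Injury or control rated visually two weeks after treatment.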

Assay [13] concerns Amaranth pigweed (PW). In words: Post-emergence herbicide test. It counts as in vivo, Amaranthus retroflexus. Particulars: 336 h, 8 lb/acre, two weeks after treatment. The essentials: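 Pot-grown pigweed was sprayed post-emergence at the 1–2 true-leaf stage with compound at rates equivalent to 8 lbs per acre (formulations also prepared for 4 lbs/acre) in 38 gallons per acre, using a hood with fixed nozzle. Plants were sub-irrigated in the greenhouse, and injury or control was rated visually two weeks after treatment.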

Assay [14] concerns Turnip (TP). As to the kind of experiment: Post-emergence herbicide test. It counts as in vivo, Brassica sp. The following applies: Brassica rapa, post-emergence, 336 h; 8 lb/acre; two weeks after treatment. The essentials:
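A greenhouse post-emergence herbicide test on turnip. Seeds were sown on the surface of potting soil in 3' plastic pots, lightly covered with screened soil and watered from below. Planting was timed so seedlings had 1 or 2 true leaves above the cotyledons at spraying, done in a hood with a fixed nozzle. Control or injury was scored by eye after two weeks.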

The subject of assay [15] is Cotton (CT). As to the kind of experiment: Post-emergence herbicide test. The assay is classed as in vivo, Gossypium hirsutum var. DPL smooth leaf. Particulars: Gossypium hirsutum, post-emergence, 336 h; 8 lb/acre; two weeks after treatment. The gist of the method: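 Cotton (Gossypium hirsutum var. DPL smooth leaf) was grown in 3' plastic pots of potting soil, four seeds per pot, planted at a depth equal to the seed diameter and watered by sub-irrigation. At the stage of expanded cotyledons with the first true leaf 1' long, plants were sprayed post-emergence in a hood with a fixed nozzle over a moving belt. Percent control was rated visually two weeks later.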

Assay [16] concerns Corn (CN). As to the kind of experiment: Post-emergence herbicide test. Particulars: Zea mays, 336 h, 8 lb/acre, two weeks after treatment. The assay is classed as in vivo. The gist of the method:
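Greenhouse seedlings grown in potting soil and sprayed post-emergence at 8 lbs compound/acre (formulations also made for 4 lbs/acre) in 38 gallons/acre spray volume. Watering by sub-irrigation only. Injury or control rated visually two weeks after treatment.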

Assay [17] deals with Bean (BN). As to the kind of experiment: Post-emergence herbicide test. Particulars: Phaseolus vulgaris, post-emergence, 336 h; 8 lb/acre; two weeks after treatment. It counts as in vivo, Phaseolus vulgaris var. Black Valentine. The gist of the method:
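Snapbean (Phaseolus vulgaris var. Black Valentine) was tested post-emergence. Four seeds were sown in 3' plastic pots of potting soil at a depth equal to the seed diameter, then sub-irrigated in greenhouse trays. Planting dates were staggered so plants were sprayed once primary leaves had expanded, with the growing point at the primary leaf nodes.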

Take `CNC(=O)Nc1nnc(-c2ccc(Cl)cc2)s1` [Example 71]: the pest or weed control at 8966.8 g/ha in assay [1] was determined as 0%; in assay [2] it was 0%; in [3], 0%; in assay [4] it was 20%; in assay [5] it was 0%; in [6] it was 90%. The pest or weed control at 8966.8 g/ha in [7] was 0%; in assay [8], 50%; in assay [9] it was 20%; in assay [10] it was 30%; in assay [11] it was 20%; in assay [12], 20%. Moreover, the pest or weed control at 8966.8 g/ha in assay [13] worked out at 20%; in [14] it was 20%; in assay [15], 0%; in assay [16], 0%; in assay [17], 50%.

Turning to `CC(C)NC(=O)Nc1nnc(C(F)(F)F)s1` [Example 11], the pest or weed control at 8966.8 g/ha was 20% in assay [1]; 10% in assay [2]; 30% in assay [3]; 10% in [4]; 10% in assay [5]; 80% in assay [6]. Moreover, the pest or weed control at 8966.8 g/ha in assay [7] came out at 80%; in assay [8] it was 30%; in [9] it was 50%; in assay [10], 20%; in assay [11], 30%; in assay [12], 40%. In addition, the pest or weed control at 8966.8 g/ha in [13] amounted to 100%; in [14] it was 60%; in assay [15], 60%; in [16], 40%; in assay [17], 50%.
